What was measured:
[1] = format: physicochemical; conditions: for CRYSTAL FORM: 100% relative humidity, 1 week, 25 ± 2° C.
Text: ARL X-ray powder diffractometer model X'TRA-030, Peltier detector, round standard aluminum sample holder with round zero background quartz plate was used. Scanning parameters: Range: 2-40 deg. 2θ, continuous Scan, Rate: 3 deg./min. The accuracy of peak positions is defined as +/−0.2 degrees due to experimental differences like instrumentations, sample preparations etc. Hygroscopicity Table and Stability Measurements of Form G and J

[2] = Hygroscopicity: water content after 1 week storage at defined relative humidity; format: physicochemical; conditions: for WATER CONTENT: 1 week, 25 ± 2° C.; for INITIAL water content: before storage
Text: Hygroscopicity Table and Stability Measurements of Form G and J

| SMILES | crystalline stability (conversion to another polymorph upon storage) [1] | CRYSTAL FORM [1] | WATER CONTENT ([2]; 40% relative humidity) [%] | WATER CONTENT ([2]; 60% relative humidity) [%] | WATER CONTENT ([2]; 80% relative humidity) [%] | WATER CONTENT ([2]; 100% relative humidity) [%] | INITIAL water content [2] |
| --- | --- | --- | --- | --- | --- | --- | --- |
| O=C(O[C@@H]1C[C@@H]2C[C@H]3C[C@H](C1)N2CC3=O)c1c[nH]c2ccccc12 [Form J, Dolasetron base] | stable polymorphic form | B >> J | <0.1 | <0.1 | 0.2 | 5.5 | INITIAL water content: <0.1% |
| O=C(O[C@@H]1C[C@@H]2C[C@H]3C[C@H](C1)N2CC3=O)c1c[nH]c2ccccc12 [Form G, Dolasetron base] | stable polymorphic form | B >> G | <0.1 | <0.1 | <0.1 | 4.1 | INITIAL water content: 0.1% |

Source: patent US20090030207A1, “Polymorphs of Dolasetron base and process for preparation thereof” (priority 2007, published 2009)
